Values quoted from earlier work as cited in paper PMC8231113, “Protein Secondary Structure Affects Glycan Clustering in Native Mass Spectrometry” (Life, 2021).

Columns and labels:
[1] = system: deamidated GII.4 Saga P dimer; set-up: method as in PMID 30899001, PMID 30071731; details: NMR and HDX MS; cited from earlier work
[2] = molecular target: wildtype GII.4 Saga P dimer; details: read-out: KD, result from NMR; cited from earlier work
hNoV P dimers = system: hNoV P dimers; set-up: method as in PMID 22170811, PMID 30899001; details: cited from earlier work

| Compound | reduction of glycan binding affinity of deamidated P dimer compared to the wildtype [1] | Kd [2] [mM] | binding to hNoV (hNoV P dimers) |
| --- | --- | --- | --- |
| C[C@@H]1O[C@@H](O[C@H]2C(O)O[C@H](CO)[C@H](O)[C@@H]2O[C@H]2O[C@H](CO)[C@H](O)[C@H](O)[C@H]2O)[C@@H](O)[C@H](O)[C@@H]1O (some centres unmarked) [B trisaccharide] | roughly by an order of magnitude | 6.7 | – |
| O=C[C@@H](O)[C@H](O)[C@H](O)[C@@H](O)CO [L-galactose] | – | – | known not to bind |
| C[C@H](O)[C@@H](O)[C@@H](O)[C@H](O)C=O [fucose] | roughly by an order of magnitude | 22 | – |
